Here are results for 1 compound from patent US5602171A, “Methods of inhibiting phosphatase activity and treatment of disorders associated therewith using naphthopyrones and derivatives thereof” (Sugen Inc., priority 1995, dated 1997).

The test relates to 3T3-L1 cells. The test is described as follows: Glucose transport assay. The note with it: differentiated 3T3-L1 preadipocyte cell line, in the absence of insulin; 0.1 μM to 500 μM, 1-4 hours. In kind it is cell-based. From the text:
This assay was used to assess the ability of the compounds of the invention to inhibit phosphatase activity that is involved in the signaling pathway that regulates the insulin-induced facilitated transport of glucose into adipocytes. […] Any compounds of the invention may be tested in this assay.
The cell line used for the glucose transport assay was 3T3-L1, a preadipocyte cell line (American Type Culture Collection CCL92.1) which overexpress the insulin receptor. The 3T3-L1 cells were first differentiated by treating cells under confluent growth in DMEM containing 10% fetal bovine serum (FBS) with 0.5 mM 3-isobutyl-1-methyl-xanthine, 5 μg/ml porcine insulin, […] dexamethasone for 2 days. The cells were then grown in DMEM containing 10% FBS and 5 μg/ml porcine insulin for two days, after which the cells were cultured in DMEM containing only 10% FBS.
Cells for use in the assay were first grown overnight in DMEM media and 1% FBS at 37° C. at 5% CO2. Two hours before use, the overnight media was replaced with serum free DMEM containing 5 mM glucose. […] The wells were washed each with 200 μl PBS which was transferred to the corresponding scintillation vial. ^3 H radioactivity was counted with a Beckman counter.

`CC1CC(=O)c2c(cc3c(-c4c(O)cc(O)c5c(O)c6c(cc45)OC(C)CC6=O)c(O)cc(O)c3c2O)O1` (stereo not shown) [Compound 1]: the “uptake of 2-deoxy-3H-glucose” value was “Dose response effect”.
